Experimental data as given in patent publication US8742088B2, “Nucleic acids encoding antibodies or portions thereof comprising a heterologous T cell epitope and their use in modulating T cell responses” (priority 2007, dated 2014).

Tested on: predicted CTL epitopes from Tie-2
Test: Ex-vivo IFNγ ELISPOT with predicted CTL epitopes from Tie-2
Assay type: in vivo, HHDII mice
Conditions: for Peptide-specific IFNγ response, highest mean value: peptide in IFA
Protocol: (C) and (D) HHDII mice were either untreated (c) or treated with 400 μg PC61mAb i.p., (d). 4 days later, all mice were immunized with the Tie2 C200HFc DNA construct. DNA immunizations were repeated at 7 day intervals for a total of 3 immunisations. 6 days after the final immunisation, splenocytes were harvested and restimulated in an ex-vivo IFNγ ELISPOT assay with 1 μg/ml of each of the predicted CTL epitopes from Tie-2. Bars indicate the mean of triplicate values for each individual mouse, normalized to background controls, with error bars representing the standard deviation from the mean.
(E) and (F), HHDII mice were either untreated (e) (n=3) or treated (f) (n=2) with 400 μg PC61 antibody i.p. After 4 days, all mice were immunised with 100 μg Z12 peptide and 100 μg Z48 peptide, mixed 1:1 in IFA (s.c.). Repeat peptide immunisations were administered 7 days after the first peptide immunisation. Splenocytes were harvested 14 days after the final immunisation and restimulated with 1 μg/ml Z12 peptide (black bars) or media alone (open bars) in an IFNγ ELIspot assay. Bars indicate the mean of triplicate values with error bars representing the standard deviation from the mean.
(G) HHDII mice were immunised with 100 μg Z12 peptide mixed 1:1 in IFA (s.c.). […] Splenocytes were harvested 7 days after the final immunisation and analysed for the presence of epitope specific responses to increasing peptide concentration in IFNγ elispot assay. Responses are measured from individual mice as spots/million splenocytes and avidity is assigned as the concentration which gives 50% maximal effector function.
(H) HHDII mice were immunised with ImmunoBody DNA construc DCIB71 via gene gun at days 0, 7 and 14. Splenocytes were harvested 7 days after the final immunisation and analysed for the presence of epitope specific responses to increasing peptide concentration in IFNγ elispot assay. Responses are measured from individual mice as spots/million splenocytes and avidity is assigned as the concentration which gives 50% maximal effector function. […]

Sequence: ILINSLPLV [Z282, I L I N S L P L V]
- Peptide-specific IFNγ response, highest mean value (CD25 depleted animals, mouse 2): 137 SFC/million cells
- Peptide-specific IFNγ response, highest mean value (non-depleted animals, mouse 3): 215 SFC/million cells
- z12 epitope specific responses (frequency and avidity) (three weekly immunisations, peptide titration): low frequency and avidity epitope specific responses
